Experimental data published in US10093713B2, “GIP-GLP-1 dual agonist compounds and methods” (priority 2013, dated 2018).
Where two headings read alike, the source gives them in different places. *1 amine or outer side, *2 acyl side, *3 side chain or, on linkers, in order; H or OH if unused. Where a SMILES comes first, the peptide text is derived from it. Side-chain parts run from the residue outwards. [ ]: non-standard residue; d: D form. The star is where a group is joined. C20 diacid = O=C(O)CCCCCCCCCCCCCCCCCCC(=O)*; C18 diacid = O=C(O)CCCCCCCCCCCCCCCCC(=O)*; γGlu = O=C(O)[C@H](CCC(=O)[*:2])N[*:1]; AEEA = NCCOCCOCC(=O)O; Aib = CC(C)(N)C(=O)O

Assays:
[1] = biological target: T1, human GIP R (Homo sapiens, UniProt P48546); experiment: Human GIP receptor (GIP R) activity assay, cAMP induction (AlphaScreen) in HEK293 cells; type: cell-based; details: read-out: hGIP-R cAMP EC50 average value
T1 construct: expressed in transfected cells
T1 sequence (P48546 22-466): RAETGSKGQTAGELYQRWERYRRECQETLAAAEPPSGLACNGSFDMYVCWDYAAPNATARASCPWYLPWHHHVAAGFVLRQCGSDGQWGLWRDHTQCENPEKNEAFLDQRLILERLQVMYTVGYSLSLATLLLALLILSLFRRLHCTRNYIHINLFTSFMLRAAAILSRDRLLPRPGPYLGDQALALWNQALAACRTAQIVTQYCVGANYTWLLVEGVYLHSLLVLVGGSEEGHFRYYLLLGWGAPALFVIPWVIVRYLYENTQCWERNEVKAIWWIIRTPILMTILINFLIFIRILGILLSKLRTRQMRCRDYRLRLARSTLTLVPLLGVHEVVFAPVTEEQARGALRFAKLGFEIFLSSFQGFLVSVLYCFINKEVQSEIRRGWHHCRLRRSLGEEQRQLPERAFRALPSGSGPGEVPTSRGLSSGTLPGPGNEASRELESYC
Summary of the method: (§1)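 Stable HEK293 clones expressing human GIP R or GLP-1 R, seeded 1 day before; cells washed in Tyrode's buffer (10 mM HEPES, pH 7.4), stimulated, then lysed. cAMP measured by AlphaScreen bead competition (1 h, room temperature, dark). EC50 = concentration giving half-maximal cAMP elevation, from curves of absolute cAMP (nM) vs log concentration.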

[2] = biological target: T2, human GLP-1 R (Homo sapiens, UniProt P43220); experiment: Human GLP-1 receptor (GLP-1 R) activity assay, cAMP induction (AlphaScreen) in HEK293 cells; type: cell-based; details: Table 2; HEK293 cells expressing human GLP-1 R; read-out: hGLP1-R cAMP EC50 average value
T2 construct: expressed in transfected cells
Summary of the method: as §1

[3] = Table 3, most comprehensive data

T2 sequence (P43220 24-463): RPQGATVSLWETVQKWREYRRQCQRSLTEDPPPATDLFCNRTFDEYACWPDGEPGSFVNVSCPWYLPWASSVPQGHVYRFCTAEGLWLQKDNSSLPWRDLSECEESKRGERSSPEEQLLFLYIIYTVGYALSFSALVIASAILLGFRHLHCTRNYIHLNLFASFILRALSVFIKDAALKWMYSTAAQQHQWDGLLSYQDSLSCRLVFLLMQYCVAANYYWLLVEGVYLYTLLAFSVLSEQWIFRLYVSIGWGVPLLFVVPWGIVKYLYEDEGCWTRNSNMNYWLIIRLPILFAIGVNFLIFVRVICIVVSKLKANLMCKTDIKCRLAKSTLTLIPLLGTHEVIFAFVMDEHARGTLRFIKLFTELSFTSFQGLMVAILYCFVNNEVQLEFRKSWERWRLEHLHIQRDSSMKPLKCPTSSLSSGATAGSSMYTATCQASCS

Structure (SMILES) | EC50 [1, 3] | EC50 [2] | EC50 ([1]; Table 2, HEK293 cells expressing human GIP R)
CC[C@H](C)[C@H](NC(=O)[C@H](CO)NC(=O)[C@H](CC(C)C)NC(=O)[C@H](CC(=O)O)NC(=O)[C@H](CO)NC(=O)[C@@H](NC(=O)[C@H](Cc1ccccc1)NC(=O)[C@@H](NC(=O)CNC(=O)[C@H](CCC(=O)O)NC(=O)C(C)(C)NC(=O)[C@@H](N)Cc1ccc(O)cc1)[C@@H](C)O)[C@@H](C)O)C(=O)N[C@@H](C)C(=O)N[C@@H](CC(C)C)C(=O)N[C@@H](CCC(=O)O)C(=O)N[C@@H](CCCCN)C(=O)N[C@@H](CCCCNC(=O)COCCOCCNC(=O)COCCOCCNC(=O)CC[C@H](NC(=O)CCCCCCCCCCCCCCCCC(=O)O)C(=O)O)C(=O)N[C@@H](C)C(=O)N[C@@H](CCC(N)=O)C(=O)N[C@@H](CCCNC(=N)N)C(=O)N[C@@H](C)C(=O)N[C@@H](Cc1ccccc1)C(=O)N[C@H](C(=O)N[C@@H](CCC(=O)O)C(=O)N[C@@H](Cc1c[nH]c2ccccc12)C(=O)N[C@@H](CC(C)C)C(=O)N[C@@H](CCC(=O)O)C(=O)N[C@@H](C)C(=O)N[C@@H](CCC(N)=O)C(=O)N[C@@H](CCCCN)C(N)=O)C(C)C [Compound 24] (H-Y[Aib]EGTFTSDLSIALEKK([AEEA-AEEA-γGlu-C18 diacid])AQRAFVEWLEAQK-NH2) | 260 pM | 11 pM | 
CC[C@H](C)[C@H](NC(=O)[C@H](CO)NC(=O)[C@H](Cc1ccc(O)cc1)NC(=O)[C@H](CC(=O)O)NC(=O)[C@H](CO)NC(=O)[C@@H](NC(=O)[C@H](Cc1ccccc1)NC(=O)[C@@H](NC(=O)CNC(=O)[C@H](CCC(=O)O)NC(=O)C(C)(C)NC(=O)[C@@H](N)Cc1ccc(O)cc1)[C@@H](C)O)[C@@H](C)O)C(=O)N[C@@H](C)C(=O)N[C@@H](CC(C)C)C(=O)N[C@@H](CCC(=O)O)C(=O)N[C@@H](CCCCN)C(=O)N[C@@H](CCCCNC(=O)COCCOCCNC(=O)COCCOCCNC(=O)CC[C@H](NC(=O)CCCCCCCCCCCCCCCCCCC(=O)O)C(=O)O)C(=O)N[C@@H](C)C(=O)N[C@@H](CCC(N)=O)C(=O)N[C@@H](CCCNC(=N)N)C(=O)N[C@@H](C)C(=O)N[C@@H](Cc1ccccc1)C(=O)N[C@H](C(=O)N[C@@H](CCC(=O)O)C(=O)N[C@@H](Cc1c[nH]c2ccccc12)C(=O)N[C@@H](CC(C)C)C(=O)N[C@@H](CC(C)C)C(=O)N[C@@H](C)C(=O)N[C@@H](CCC(N)=O)C(=O)N[C@@H](CCCCN)C(N)=O)C(C)C [Compound 25] (H-Y[Aib]EGTFTSDYSIALEKK([AEEA-AEEA-γGlu-C20 diacid])AQRAFVEWLLAQK-NH2) | 9 pM | 11 pM | 9 pM
CC[C@H](C)[C@H](NC(=O)[C@H](CO)NC(=O)[C@H](CC(C)C)NC(=O)[C@H](CC(=O)O)NC(=O)[C@H](CO)NC(=O)[C@@H](NC(=O)[C@H](Cc1ccccc1)NC(=O)[C@@H](NC(=O)CNC(=O)[C@H](CCC(=O)O)NC(=O)C(C)(C)NC(=O)[C@@H](N)Cc1ccc(O)cc1)[C@@H](C)O)[C@@H](C)O)C(=O)N[C@@H](C)C(=O)N[C@@H](CC(C)C)C(=O)N[C@@H](CCC(=O)O)C(=O)N[C@@H](CCCCN)C(=O)N[C@@H](CCCCNC(=O)COCCOCCNC(=O)COCCOCCNC(=O)CC[C@H](NC(=O)CCCCCCCCCCCCCCCCCCC(=O)O)C(=O)O)C(=O)N[C@@H](C)C(=O)N[C@@H](CCC(N)=O)C(=O)N[C@@H](CCCNC(=N)N)C(=O)N[C@@H](C)C(=O)N[C@@H](Cc1ccccc1)C(=O)N[C@H](C(=O)N[C@@H](CCC(=O)O)C(=O)N[C@@H](Cc1c[nH]c2ccccc12)C(=O)N[C@@H](CC(C)C)C(=O)N[C@@H](CCC(=O)O)C(=O)N[C@@H](C)C(=O)N[C@@H](CCC(N)=O)C(=O)N[C@@H](CCCCN)C(N)=O)C(C)C [Compound 26] (H-Y[Aib]EGTFTSDLSIALEKK([AEEA-AEEA-γGlu-C20 diacid])AQRAFVEWLEAQK-NH2) | 580 pM | 14 pM | 
